Data from PubChem BioAssay (NCI).
“And” between values parts separate entries of the source, which are not always exact repeats. Identical values can stand only once.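 In this assay, cells in 96-well plates receive the compound at five concentrations for 48 hours. Endpoints are linearly interpolated between the surrounding concentrations. GI50 = concentration required for 50% inhibition of growth. TGI denotes the concentration required for complete inhibition of growth.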

How the values were obtained:
Experiment in all cases: DTP human tumour cell line panel, 48 h
[1] = system: 786-0 renal
[2] = system: COLO 205 colon
[3] = system: EKVX NSCLC
[4] = system: HL-60(TB) leukemia
[5] = system: HT29 colon
[6] = system: IGROV1 ovarian
[7] = system: RXF 393 renal
[8] = system: SF-539 CNS
[9] = system: SK-MEL-2 melanoma
[10] = system: PC-3 prostate

| Structure (SMILES) | TGI [1] | TGI [2] | TGI [3] | TGI [4] | TGI [5] | TGI [6] | TGI [7] | TGI [8] | TGI [9] | GI50 [1] | GI50 [2] | GI50 [4] | GI50 [5] | GI50 [6] | GI50 [10] | TGI [10] | GI50 [7] | GI50 [8] | GI50 [9] | GI50 [3] |
| --- | --- | --- | --- | --- | --- | --- | --- | --- | --- | --- | --- | --- | --- | --- | --- | --- | --- | --- | --- | --- |
| CCCCc1c2c(nc3c1CC/C(=C\c1ccccc1)C3=O)CCCC2 | 5.64 µM | 23.1 µM | 24.9 µM | 10.3 µM | 4.75 µM | 15.2 µM | 6.35 µM | 4.71 µM |  |  |  |  |  |  |  |  |  |  |  |  |
| CCOC(=O)c1c(/C=N\Nc2ccccc2)nc2ccccc2c1-c1ccccc1 | > 100 µM | 53 µM | > 100 µM | 50.1 µM | > 100 µM | > 100 µM | > 100 µM | > 100 µM | > 100 µM |  |  |  |  |  |  |  |  |  |  |  |
| Cn1c(=O)c(Oc2ccc(F)cc2F)cc2cnc(NC3CCC(O)CC3)nc21 (configuration not stated) | > 25 µM | > 25 µM |  | > 25 µM | > 25 µM | > 25 µM | > 25 µM | > 25 µM | > 25 µM | > 25 µM | > 25 µM | > 25 µM | > 25 µM | > 25 µM | > 25 µM | > 25 µM | > 25 µM | > 25 µM | > 25 µM |  |
| CCOC(=O)NC/C=C/CO | > 100 µM | > 100 µM |  | > 100 µM |  | > 100 µM | > 100 µM | > 100 µM | > 100 µM |  |  |  |  |  |  |  |  |  |  |  |
| O=C1NC2(CCCCC2)C2=C1CCCCC2 | > 100 µM | > 100 µM | > 100 µM | > 100 µM | > 100 µM | > 100 µM | > 100 µM | > 100 µM | > 100 µM |  |  |  |  |  |  |  |  |  |  |  |
| COc1ccc(S(=O)(=O)NCCCNc2nccc(-c3c(-c4ccc(F)cc4)nc4sccn34)n2)cc1 | > 100 µM | 73.9 µM |  | > 100 µM | 20.2 µM | > 100 µM | 76.7 µM | > 100 µM | 50.3 µM | 5.83 µM | 5.58 µM | 7.51 µM | 2.84 µM | 5.59 µM | 8.74 µM | > 100 µM | 3.36 µM | 17.1 µM | 12.4 µM |  |
| O=C(/C=C/N1CCN(c2cccc(Cl)c2)CC1)c1ccc(Cl)cc1 | > 100 µM | > 100 µM | 85.3 µM |  | > 100 µM |  | > 100 µM | 47.7 µM | > 100 µM | 33.9 µM | 36.2 µM |  | 32.8 µM |  | 25.3 µM | > 100 µM | 39.1 µM | 22.8 µM | 35.3 µM | 25.9 µM |
| NC(=O)NC(=O)C1CCC(=O)N1S(=O)(=O)c1ccc(Cl)cc1 (configuration not stated) | > 100 µM | > 100 µM | > 100 µM | > 100 µM | > 100 µM | > 100 µM | > 100 µM | > 100 µM | > 100 µM |  |  |  |  |  |  |  |  |  |  |  |
| CCCNc1ncnc2c1cnn2C | > 100 µM | > 100 µM |  | > 100 µM | > 100 µM | > 100 µM |  | > 100 µM | > 100 µM |  |  |  |  |  |  |  |  |  |  |  |
| COC(=O)N/N=C(\c1nc2ccc(Cl)cc2[nH]c1=O)C(O)c1ccc([N+](=O)[O-])cc1 (configuration not stated) | > 100 µM | > 100 µM |  | > 100 µM | > 100 µM | > 100 µM | > 100 µM | > 100 µM |  |  |  |  |  |  |  |  |  |  |  |  |
| Brc1ccc2c(c1)-c1ccccc1C1=NCCN12 | 11.7 µM | 2.33 µM |  | 5.65 µM | 3.33 µM | 11.2 µM | 3.23 µM | 4.38 µM | 4.18 µM | 1.61 µM | 0.652 µM | 2.45 µM | 0.478 µM | 1.61 µM | 0.763 µM | 11 µM | 1.29 µM | 1.63 µM | 1.87 µM |  |
| CC1CC2C(=O)N(c3ccccc3)C(=O)C2c2[nH]c3ccccc3c21 (configuration not stated) | > 100 µM | > 100 µM | > 100 µM | > 100 µM | > 100 µM | > 100 µM | > 100 µM | > 100 µM |  |  |  |  |  |  |  |  |  |  |  |  |
| Cc1cc2c(=O)cc(-c3ccncc3)oc2c(C(=O)O)c1C | > 100 µM | > 100 µM | > 100 µM | > 100 µM | > 100 µM | > 100 µM | > 100 µM | > 100 µM | > 100 µM |  |  |  |  |  |  |  |  |  |  |  |
| CCCCCCCCCCCCCCCC(=O)NCC(OCC)OCC | > 100 µM | > 100 µM | > 100 µM | > 100 µM | > 100 µM | > 100 µM | > 100 µM | > 100 µM | > 100 µM |  |  |  |  |  |  |  |  |  |  |  |
| COC(=O)CCSC(=O)Nc1ccccc1Cl | > 100 µM | > 100 µM | > 100 µM | > 100 µM | > 100 µM |  |  | > 100 µM | > 100 µM |  |  |  |  |  |  |  |  |  |  |  |
| OCCn1c(-c2ccncc2)c(-c2ccc(F)cc2)c2ncccc21 | > 25 µM | > 25 µM |  | > 25 µM | > 25 µM | > 25 µM | > 25 µM | > 25 µM | > 25 µM | > 25 µM | > 25 µM | > 25 µM | > 25 µM | > 25 µM | > 25 µM | > 25 µM | > 25 µM | > 25 µM | > 25 µM |  |
| CC(=O)OC1CCC2(C)C(=CCC3C4CC(CN5CC5)C(=O)C4(C)CCC32)C1 (configuration not stated) | 20.9 µM | 12 µM |  | 16.8 µM | 12.6 µM | 15.2 µM | 24.1 µM | 26.9 µM | 28.2 µM | 7.91 µM | 3.71 µM | 4.12 µM | 3.39 µM | 4.23 µM | 12.7 µM | 26.8 µM | 9.77 µM | 13.5 µM | 14 µM |  |
| COc1cccc(OC)c1/C=N\N1C(=O)c2ccccc2C1=O | > 100 µM |  | > 100 µM | 79.8 µM | > 100 µM | > 100 µM | 62.1 µM | 52.4 µM | > 100 µM |  |  |  |  |  |  |  |  |  |  |  |
| Cc1c2cc[n+](C)cc2c(C)c2c1[nH]c1ccc(Oc3ccccc3)cc12 | > 64.3 µM | 5.25 µM | > 100 µM and 51.7 µM |  | 21.2 µM and 29 µM | 33.5 µM and 24.5 µM | > 100 µM and 59.4 µM | 20.2 µM and 21 µM |  |  |  | 2.18 µM and 4.06 µM |  |  |  |  | > 100 µM and 11 µM |  |  |  |
